Assay results reported in patent US20250011314A1, “MICROBIOCIDAL PYRAZOLE DERIVATIVES” (SYNGENTA CROP PROTECTION AG, priority 2021, published 2025).

Columns and labels:
[1] = test system: Monographella nivalis (Microdochium nivale); assay: Monographella nivalis (Microdochium nivale) / liquid culture (foot rot cereals); type: cell-based; details: liquid culture (PDB), 24° C., growth inhibition photometrically 4-5 days after application, read-out: control of Monographella nivalis compared to untreated control
Method: (§1) Example B-7: Monographella Nivalis (Microdochium nivale)/Liquid Culture (Foot Rot Cereals) Conidia of the fungus from cryogenic storage are directly mixed into nutrient broth (PDB potato dextrose broth). After placing a (DMSO) solution of test compound into a microtiter plate (96-well format), the nutrient broth containing the fungal spores is added. The test plates are incubated at 24° C. and the inhibition of growth is determined photometrically 4-5 days after application.

[2] = test system: Glomerella lagenarium (Colletotrichum lagenarium); assay: Glomerella lagenarium (Colletotrichum lagenarium) / liquid culture (anthracnose); type: cell-based; details: Colletotrichum orbiculare, liquid culture (PDB), 24° C., growth inhibition photometrically 3-4 days after application, read-out: control of Glomerella lagenarium compared to untreated control
Method: as §1, with “B-3: Glomerella lagenarium (Colletotrichum lagenarium)/Liquid” for “B-7: Monographella Nivalis (Microdochium nivale)/Liquid”, “(Anthracnose)” for “(Foot Rot Cereals)”, “measured” for “determined”, “3-4” for “4-5”

[3] = test system: Mycosphaerella graminicola (Septoria tritici); assay: Mycosphaerella graminicola (Septoria tritici) / liquid culture (Septoria blotch); type: cell-based; details: Zymoseptoria tritici, liquid culture (PDB), 24° C., growth inhibition photometrically 4-5 days after application, read-out: control of Mycosphaerella graminicola compared to untreated control
Method: as §1, with “B-12: Mycosphaerella graminicola (Septoria tritici)/Liquid” for “B-7: Monographella Nivalis (Microdochium nivale)/Liquid”, “(Septoria Blotch)” for “(Foot Rot Cereals)”

[4] = test system: Magnaporthe grisea (Pyricularia oryzae); type: in vivo; details: 200 ppm; rice leaf segments cv. Ballila; inoculated 2 days after application; assessed 5-7 days after application

SMILES	inhibition of growth at 20 ppm [1] [%]	inhibition of growth at 20 ppm [2] [%]	inhibition of growth at 20 ppm [3] [%]	control of Magnaporthe grisea compared to untreated control [4]
Cn1cc(C(C)(CNC(=O)c2cc(-c3ccc(F)cc3F)on2)c2nc(Cl)cs2)cn1 (racemic) [Compound P-4, N-[2-(4-chlorothiazol-2-yl)-2-(1-methylpyrazol-4-yl)propyl]-5-(2,4-difluorophenyl)isoxazole-3-carboxamide]	≥ 80	≥ 80	≥ 80	
Cn1cc(C(C)(CNC(=O)c2cc(-c3ccc(F)cc3F)on2)c2nc(Cl)cs2)cn1 (single isomer, unassigned) [Compound P-5, N-[2-(4-chlorothiazol-2-yl)-2-(1-methylpyrazol-4-yl)propyl]-5-(2,4-difluorophenyl) isoxazole-3-carboxamide]	≥ 80	≥ 80	≥ 80	
Cn1cc(C(C)(CNC(=O)c2cc(-c3ccc(F)cc3F)on2)c2ccn(C)n2)cn1 (stereo not shown) [Compound P-1, 5-(2,4-difluorophenyl)-N-[2-(1-methylpyrazol-3-yl)-2-(1-methylpyrazol-4-yl)propyl]isoxazole-3-carboxamide]	≥ 80	≥ 80	≥ 80	at least 80%
Cn1cc(C(C)(CNC(=O)c2cc(-c3ccc(F)cc3F)on2)c2nccs2)cn1 (stereo not shown) [Compound P-2, 5-(2,4-difluorophenyl)-N-[2-(1-methylpyrazol-4-yl)-2-thiazol-2-yl-propyl]isoxazole-3-carboxamide]	≥ 80	≥ 80	≥ 80	
Cn1cc(C(C)(CNC(=O)c2cc(-c3ccc(F)cc3F)on2)c2nc(Cl)c(Cl)s2)cn1 (stereo not shown) [Compound P-3, N-[2-(4,5-dichlorothiazol-2-yl)-2-(1-methylpyrazol-4-yl)propyl]-5-(2,4-difluorophenyl)isoxazole-3-carboxamide]	≥ 80	≥ 80	≥ 80	
Cn1cc(C(C)(CNC(=O)c2cc(-c3ccc(F)cc3F)on2)c2ncc(Br)s2)cn1 (stereo not shown) [Compound P-7, N-[2-(5-bromothiazol-2-yl)-2-(1-methylpyrazol-4-yl)propyl]-5-(2,4-difluorophenyl) isoxazole-3-carboxamide]	≥ 80	≥ 80	≥ 80	
Cn1cc(C(C)(CNC(=O)c2cc(-c3ccc(F)cc3F)on2)c2nc(Br)cs2)cn1 (stereo not shown) [Compound P-8, N-[2-(4-bromothiazol-2-yl)-2-(1-methylpyrazol-4-yl)propyl]-5-(2,4-difluorophenyl) isoxazole-3-carboxamide]	≥ 80	≥ 80	≥ 80	
Cn1cc(C(C)(CNC(=O)c2cc(-c3ccc(F)cc3F)on2)c2nc(C(F)(F)F)cs2)cn1 (stereo not shown) [Compound P-9, 5-(2,4-difluorophenyl)-N-[2-(1-methylpyrazol-4-yl)-2-[4-(trifluoromethyl)thiazol-2-yl]propyl]isoxazole-3-carboxamide]	≥ 80	≥ 80	≥ 80	
Cn1cc(C(C)(CNC(=O)c2cc(-c3ccc(F)cc3F)on2)c2csc(Br)n2)cn1 (stereo not shown) [Compound P-10, N-[2-(2-bromothiazol-4-yl)-2-(1-methylpyrazol-4-yl)propyl]-5-(2,4-difluorophenyl) isoxazole-3-carboxamide]	≥ 80	≥ 80	≥ 80	
Cn1cc(C(C)(CNC(=O)c2cc(-c3ccc(F)cc3F)on2)c2nc(C3CC3)cs2)cn1 (stereo not shown) [Compound P-11, N-[2-(4-cyclopropylthiazol-2-yl)-2-(1-methylpyrazol-4-yl)propyl]-5-(2,4-difluorophenyl) isoxazole-3-carboxamide]	≥ 80	≥ 80	≥ 80	
